Read-outs that look alike come from different tables or passages of the source. Ends that are not written are not given here.
How the values were obtained:
SARS-CoV-2 = settings: cited from earlier work
[1] = molecular target: recombinant SARS-CoV-2 M^pro (Severe acute respiratory syndrome coronavirus 2, UniProt P0DTD1)
[2] = ref [46]; cited from earlier work
[3] = ref [44]; cited from earlier work

## LL-37: Source: Homo sapiens (LLGDFFRKSKEKIGKEFKRIVQRIKDFLRNLVPRTES; Antibacterial peptide LL-37; UniProt P49913 134-170, looked up)
SARS-CoV-2; ref [36]
  Effect against viruses / SARS-CoV-2: effective against viruses and a few against SARS-CoV-2

## Protegrin 1: Source: Sus scrofa (RGGRLCYCRRRFCVCVGR; ends and bridges not checked; cysteine pairing not given here; UniProt P32194 131-148, looked up)
SARS-CoV-2; ref [36]
  Effect against viruses / SARS-CoV-2: effective against viruses and a few against SARS-CoV-2

## Protegrin 2: cysteine rich potent antimicrobial peptide originally isolated from pigs; two cysteine-cysteine disulfide bridges; PDB ID 2MUH
[1]
  M^pro proteolytic cleavage activity: inhibits the proteolytic cleavage activity of M^pro
[2]
  Toxicity: low toxicity
[3]
  Antimicrobial activity: potent

## beta-defensin 1: naturally occurring antimicrobial peptide (DHYNCVSSGGQCLYSACPIFTKIQGTCYRGKAKCCK; ends and bridges not checked; cysteine pairing not given here; UniProt P60022 33-68, looked up)
SARS-CoV-2; ref [36]
  Effect against viruses / SARS-CoV-2: effective against viruses and a few against SARS-CoV-2

B1: human defensin 5: Source: Homo sapiens (peptide, UniProt Q01523 20-94, looked up)
Defensin alpha 5: ESLQERADEATTQKQSGEDNQDLAISFAGNGLSALRTSGSQARATCYCRTGRCATRESLSGVCEISGRLYRLCCR
modifications: Defensin-5
SARS-CoV-2; ref [38], [39]
  Effect against viruses / SARS-CoV-2: effective against viruses and a few against SARS-CoV-2
